# Reference: ChEMBL document CHEMBL5052856, “Inhibitors of apol1 and methods of using same” (2021)
# Target: Apolipoprotein L1 (Homo sapiens, UniProt O14791)
# Experiment: Inhibition of APOL1 G1 variant in human HEK293-T-REx cells measured by Thallium assay
# Format: cell-based
row,Structure (SMILES),IC50 [nM]
1,C[C@H](O)[C@H](CO)NC(=O)O[C@H]1C[C@H](c2c(-c3ccc(F)cc3)[nH]c3c(F)cc(F)cc32)C1,> 1000
2,CC(O)(CO)CNC(=O)C1CC(Cc2c(-c3ccc(F)cc3)[nH]c3c(F)cc(F)cc23)C1 (stereo not given),> 1000
3,O=C(NCCO)O[C@H]1C[C@H](c2c(-c3ccc(F)cc3)[nH]c3c(F)cc(F)cc32)C1,0.25
4,O=C(NCC(O)CO)O[C@H]1C[C@H](c2c(-c3ccc(F)cc3)[nH]c3c(F)cc(F)cc32)C1 (stereo not given in full),> 1000
5,CC(NC(=O)C1CC(Cc2c(-c3ccc(F)cc3)[nH]c3c(F)cc(F)cc23)C1)c1ccn(C)n1 (stereo not given),> 1000
6,Cn1cnc(CNC(=O)O[C@H]2C[C@H](c3c(-c4ccc(F)cc4)[nH]c4c(F)cc(F)cc43)C2)c1,> 1000
7,Cc1nn(C)cc1CNC(=O)C1CC(Cc2c(-c3ccc(F)cc3)[nH]c3c(F)cc(F)cc23)C1 (stereo not given),> 1000
8,O=C(NC1CC1)O[C@H]1C[C@H](c2c(-c3ccc(F)cc3)[nH]c3c(F)cc(F)cc32)C1,0.25
9,O=C(Nc1ccc[nH]c1=O)C1CC(Cc2c(-c3ccc(F)cc3)[nH]c3c(F)cc(F)cc23)C1 (stereo not given),> 1000
10,O=C(NCc1cnco1)O[C@H]1C[C@H](c2c(-c3ccc(F)cc3)[nH]c3c(F)cc(F)cc32)C1,0.25
11,CC(O)C(C)NC(=O)O[C@H]1C[C@H](c2c(-c3ccc(F)cc3)[nH]c3c(F)cc(F)cc32)C1 (stereo not given in full),> 1000
12,COCC(C)NC(=O)O[C@H]1C[C@H](c2c(-c3ccc(F)cc3)[nH]c3c(F)cc(F)cc32)C1 (stereo not given in full),0.25
13,O=C1CC(CNC(=O)C2CC(Cc3c(-c4ccc(F)cc4)[nH]c4c(F)cc(F)cc34)C2)CN1 (stereo not given),> 1000
14,O=C(NCC1CC1)O[C@H]1C[C@H](c2c(-c3ccc(F)cc3)[nH]c3c(F)cc(F)cc32)C1,> 1000
15,CC(CO)NC(=O)O[C@H]1C[C@H](c2c(-c3ccc(F)cc3)[nH]c3c(F)cc(F)cc32)C1 (stereo not given in full),0.25
16,COC[C@H](C)NC(=O)O[C@H]1C[C@H](c2c(-c3ccc(F)cc3)[nH]c3c(F)cc(F)cc32)C1,> 1000
17,Cc1cc(CNC(=O)C2CC(Cc3c(-c4ccc(F)cc4)[nH]c4c(F)cc(F)cc34)C2)nn1C (stereo not given),> 1000
18,O=C(NCC1(O)CCC1)C1CC(Cc2c(-c3ccc(F)cc3)[nH]c3c(F)cc(F)cc23)C1 (stereo not given),> 1000
19,O=C(NCC(F)F)O[C@H]1C[C@H](c2c(-c3ccc(F)cc3)[nH]c3c(F)cc(F)cc32)C1,0.25
20,Cn1cc(CNC(=O)C2CC(Cc3c(-c4ccc(F)cc4)[nH]c4c(F)cc(F)cc34)C2)cn1 (stereo not given),> 1000

row,Structure (SMILES),IC50 [nM]
1,CC(C)(O)CCNC(=O)C1CC(Cc2c(-c3ccc(F)cc3)[nH]c3c(F)cc(F)cc23)C1 (stereo not given),> 1000
2,CC(=O)NCCNC(=O)C1CC(Cc2c(-c3ccc(F)cc3)[nH]c3c(F)cc(F)cc23)C1 (stereo not given),> 1000
3,O=C(NCc1ccoc1)C1CC(Cc2c(-c3ccc(F)cc3)[nH]c3c(F)cc(F)cc23)C1 (stereo not given),> 1000
4,COC1(CNC(=O)C2CC(Cc3c(-c4ccc(F)cc4)[nH]c4c(F)cc(F)cc34)C2)CCOC1 (stereo not given),> 1000
5,O=C(NCC1(O)CCCC1)C1CC(Cc2c(-c3ccc(F)cc3)[nH]c3c(F)cc(F)cc23)C1 (stereo not given),> 1000
6,CC(C)C[C@@H](CO)NC(=O)C1CC(Cc2c(-c3ccc(F)cc3)[nH]c3c(F)cc(F)cc23)C1 (stereo not given in full),> 1000
7,CC1(CNC(=O)C2CC(Cc3c(-c4ccc(F)cc4)[nH]c4c(F)cc(F)cc34)C2)CCOC1 (stereo not given),> 1000
8,O=C(NCc1cnco1)C1CC(Cc2c(-c3ccc(F)cc3)[nH]c3c(F)cc(F)cc23)C1 (stereo not given),> 1000
9,O=C(NCC1CCOC1)C1CC(Cc2c(-c3ccc(F)cc3)[nH]c3c(F)cc(F)cc23)C1 (stereo not given),> 1000
10,CC1(NC(=O)C2CC(Cc3c(-c4ccc(F)cc4)[nH]c4c(F)cc(F)cc34)C2)CCOC1 (stereo not given),> 1000
11,C[C@H](NC(=O)C1CC(Cc2c(-c3ccc(F)cc3)[nH]c3c(F)cc(F)cc23)C1)C(C)(C)O (stereo not given in full),> 1000
12,O=C(NCC1CC(F)(F)C1)C1CC(Cc2c(-c3ccc(F)cc3)[nH]c3c(F)cc(F)cc23)C1 (stereo not given),> 1000
13,CS(=O)(=O)CCNC(=O)C1CC(Cc2c(-c3ccc(F)cc3)[nH]c3c(F)cc(F)cc23)C1 (stereo not given),> 1000
14,O=C(NCC1CCCO1)C1CC(Cc2c(-c3ccc(F)cc3)[nH]c3c(F)cc(F)cc23)C1 (stereo not given),> 1000
15,C[C@H](CO)NC(=O)O[C@H]1C[C@H](c2c(-c3ccc(F)cc3)[nH]c3c(F)cc(F)cc32)C1,0.25
16,NC(=O)CNC(=O)O[C@H]1C[C@H](c2c(-c3ccc(F)cc3)[nH]c3c(F)cc(F)cc32)C1,< 250
17,Cn1cnc(CNC(=O)C2CC(Cc3c(-c4ccc(F)cc4)[nH]c4c(F)cc(F)cc34)C2)c1 (stereo not given),> 1000
18,O=C(NCc1ccc[nH]c1=O)C1CC(Cc2c(-c3ccc(F)cc3)[nH]c3c(F)cc(F)cc23)C1 (stereo not given),> 1000
19,C[C@H](O)CNC(=O)O[C@H]1C[C@H](c2c(-c3ccc(F)cc3)[nH]c3c(F)cc(F)cc32)C1,> 1000
20,O=C(NC(CO)(CO)CO)O[C@H]1C[C@H](c2c(-c3ccc(F)cc3)[nH]c3c(F)cc(F)cc32)C1,< 250

row,Structure (SMILES),IC50 [nM]
1,O=C(N[C@@H]1CCNC1=O)O[C@H]1C[C@H](c2c(-c3ccc(F)cc3)[nH]c3c(F)cc(F)cc32)C1,0.25
2,CC(C)(CO)NC(=O)O[C@H]1C[C@H](c2c(-c3ccc(F)cc3)[nH]c3c(F)cc(F)cc32)C1,0.25
3,CC(NC(=O)C1CC(Cc2c(-c3ccc(F)cc3)[nH]c3c(F)cc(F)cc23)C1)C1CCOC1 (stereo not given),> 1000
4,C[C@@H](O)CNC(=O)O[C@H]1C[C@H](c2c(-c3ccc(F)cc3)[nH]c3c(F)cc(F)cc32)C1,> 1000
5,COCC1(CNC(=O)C2CC(Cc3c(-c4ccc(F)cc4)[nH]c4c(F)cc(F)cc34)C2)CC1 (stereo not given),> 1000
6,C[C@@H](CO)NC(=O)O[C@H]1C[C@H](c2c(-c3ccc(F)cc3)[nH]c3c(F)cc(F)cc32)C1,0.25
7,CC1(O)CC(NC(=O)O[C@H]2C[C@H](c3c(-c4ccc(F)cc4)[nH]c4c(F)cc(F)cc43)C2)C1 (stereo not given in full),> 1000
8,O=C(NCc1cocn1)C1CC(Cc2c(-c3ccc(F)cc3)[nH]c3c(F)cc(F)cc23)C1 (stereo not given),> 1000
9,CC1(O)CC(NC(=O)C2CC(Cc3c(-c4ccc(F)cc4)[nH]c4c(F)cc(F)cc34)C2)C1 (stereo not given),> 1000
10,O=C(NCc1ncc[nH]1)C1CC(Cc2c(-c3ccc(F)cc3)[nH]c3c(F)cc(F)cc23)C1 (stereo not given),> 1000
11,CC(C)(O)CNC(=O)C1CC(Cc2c(-c3ccc(F)cc3)[nH]c3c(F)cc(F)cc23)C1 (stereo not given),> 1000
12,O=C(NCC1(CO)CC1)C1CC(Cc2c(-c3ccc(F)cc3)[nH]c3c(F)cc(F)cc23)C1 (stereo not given),> 1000
13,O=C(NCc1cnn(CC(F)(F)F)c1)C1CC(Cc2c(-c3ccc(F)cc3)[nH]c3c(F)cc(F)cc23)C1 (stereo not given),> 1000
14,O=C(NCc1ncc[nH]1)O[C@H]1C[C@H](c2c(-c3ccc(F)cc3)[nH]c3c(F)cc(F)cc32)C1,> 1000
15,C[C@@H](O)[C@@H](CO)NC(=O)O[C@H]1C[C@H](c2c(-c3ccc(F)cc3)[nH]c3c(F)cc(F)cc32)C1,> 1000
16,O=C(NCC1CCOCC1)C1CC(Cc2c(-c3ccc(F)cc3)[nH]c3c(F)cc(F)cc23)C1 (stereo not given),> 1000
17,Cn1ccnc1CNC(=O)C1CC(Cc2c(-c3ccc(F)cc3)[nH]c3c(F)cc(F)cc23)C1 (stereo not given),> 1000
18,Cn1cncc1CNC(=O)C1CC(Cc2c(-c3ccc(F)cc3)[nH]c3c(F)cc(F)cc23)C1 (stereo not given),> 1000
19,O=C(N[C@H](CO)C(F)(F)F)O[C@H]1C[C@H](c2c(-c3ccc(F)cc3)[nH]c3c(F)cc(F)cc32)C1,> 1000
20,O=C(NCc1ccc(=O)[nH]c1)C1CC(Cc2c(-c3ccc(F)cc3)[nH]c3c(F)cc(F)cc23)C1 (stereo not given),> 1000
